Test [1] deals with AUD patients. The experiment in a line: Drinking-related problems, Short Index of Problems (SIP-2R). It is filed as in vivo, human. The conditions noted are these: week 36. The source says:
The pre-specified primary drinking outcome was the percentage of heavy drinking days (PH DD) during […], assessed at weeks 8, 12, 24, and 36 using the timeline followback, a reliable and valid calendar-based method which is the gold standard outcome for AUD clinical trials.^43-47 Secondary outcomes included percent drinking days (PDD), average drinks per day (DPD), and dichotomous outcomes: abstinence, lack of heavy drinking days, and reduction in World Health Organization risk level^48 by one, two, or three levels. Hair or fingernail samples were collected at week 24 and assayed for ethylglucuronide (EtG) concentration to confirm self-reported abstinence. The Short Index of Problems (SIP-2R)^49 was used to assess drinking-related problems at baseline and weeks 12, 24, and 36.
Treatment contrasts for dichotomous outcomes were obtained using Chi-squared statistics. Effects of treatment on problems related to drinking were compared using univariate mixed models for repeated measures (MMRM) and generalized linear models. Hedges'g was computed as a measure of effect size for between- and within-group differences on continuous outcomes, and odds ratios were computed for dichotomous outcomes. No correction was made for multiple comparisons, so analyses of secondary outcomes should be considered exploratory.

The subject of test [2] is AUD patients. The test can be described thus: Subjective effects of study medication, Mystical Experience Questionnaire (MEQ). Type of test: in vivo, human. How it is done: Subjective effects of psilocybin vs. diphenhydramine were assessed using the States of Consciousness Questionnaire,^42 containing the 43-item Mystical Experience Questionnaire (MEQ), completed immediately after each medication session.
MEQ scores for the first and second medication sessions were computed and contrasted by group (psilocybin vs. diphenhydramine) using t-tests for independent samples.

Regarding `CN(C)CCc1c[nH]c2cccc(OP(=O)(O)O)c12` [Psilocybin, [3-[2-(dirnethylamino)ethyl]-1H-indo1-4-yl] dihydrogen phosphate], in test [1], the “Total Problems score, between-group Hedges' g” value stood at 0.67 and the “Total Problems score, between-group mean difference” value was 6.41. In addition, the “Mean MEQ score” value in test [2] (Session 1, psilocybin 25 mg/70 kg or diphenhydramine 50 mg) is reported as 0.59 (SD=0.24). For the same compound, the “Mean MEQ score” value in test [2] (Session 2, psilocybin 25-40 mg/70 kg or diphenhydramine 50-100 mg) was 0.64 (SD=0.21).

These data come from patent US20240000814A1, “TREATING ALCOHOL USE DISORDER USING PSILOCYBIN” (New York University, priority 2022, published 2024).
